Results taken from US12576156B2, “Compound comprising self-immolative group and ligand-drug conjugate comprising same” (priority 2022, dated 2026).
Numbered stars: 1 amine (or outer) side, 2 acyl side, 3 side chain; on linkers, the order of the positions; unused ones are H or OH. Square brackets hold non-standard residues; d marks the D form. Peptide text beside a SMILES is read from it. * marks the point of attachment. ξ: configuration not given here. X1 = O=C(O)CCCc1cc2c(O[C@@H]3O[C@H](CO)[C@H](O)[C@H](O)[C@H]3O)ccc(COC(=O)*)c2o1; X3 = O=C(O)c1cc2c(O[C@@H]3O[C@H](CO)[C@H](O)[C@H](O)[C@H]3O)ccc(COC(=O)*)c2[se]1; X2 = O=C(O)CCc1cc2c(O[C@@H]3O[C@H](CO)[C@H](O)[C@H](O)[C@H]3O)ccc(COC(=O)*)c2s1; X4 = O=C(O)c1cc2c(O[C@@H]3O[C@H](CO)[C@H](O)[C@H](O)[C@H]3O)ccc(COC(=O)*)c2o1; Dil(5ξ) = CCC(C)[C@@H]([C@@H](CC(=O)[*:2])OC)N(C)[*:1]; Dolaproine = CO[C@@H]([C@@H]1CCCN1)[C@@H](C)C(=O)O; NMeV = CN[C@H](C(=O)O)C(C)C; ξF = NC(Cc1ccccc1)C(=O)O

Tests used:
[1] = Chemical stability in PBS buffer solution (pH 7.4); type: physicochemical; conditions: 37° C., read-out: Chemical stability t1/2
Protocol: The compounds of the present invention (A-15, A-16, A-19, A-21 to A-25, A-28, A-29, A-36 and A-69) were each dissolved in DMSO to a concentration of 10 mM and then mixed with a PBS buffer solution (pH 7.4) to prepare as a solution having a concentration of 500 μM (5% DMSO). MPS, used as a standard material, was also prepared as a solution having a concentration of 500 μM in a PBS buffer solution. 420 μL of a PBS buffer solution and […] of each of 500 μM compounds of the present invention and MPS were mixed to prepare a total of 700 μL of reaction solution. The reaction of the mixed solution was initiated in a constant temperature incubator at 37° C. The reaction solution was aliquoted in an amount of 70 μL at 0 minutes before the reaction and at certain times after the reaction, and the remaining compounds of the present invention or MPS or the liberated MMAF or MMAE were quantitatively analyzed using the HPLC method. […] In addition, the remaining amount of Compound A-69 in a PBS buffer solution (pH 7.4) according to the incubation time is shown in FIG. 5.

[2] = Mouse plasma stability (Method 1); type: in vitro ADME; conditions: Method 1 (mouse plasma), 37° C.; read-out: Plasma stability t1/2
Protocol: Method 1: Mouse Plasma Stability
(§1) The compounds of the present invention (A-16, A-22, A-25, A-36, A-69) and MPS, used as a standard material, were each dissolved in DMSO and a PBS buffer solution to a concentration of 30 mM, and then mixed in mouse plasma (Biochemed, 029-APSC-PMG) to a final concentration of 300 μM (final 1.0% DMSO) and 600 μM of the compounds and MPS, respectively. The reaction of the mixed solution in plasma was initiated in a constant temperature incubator at 37° C. Before the reaction and on certain days after the reaction, the above samples were aliquoted in an amount of 100 μL, and 200 μL of acetonitrile (ACN, Sigma, SA-271004-1L) was added to terminate the reaction, mixed, and then vortexed for about 1 minute, and then centrifuged (Beckman, B30150) at 4° C. for 15 minutes at 14,000 rpm to precipitate plasma proteins. Each supernatant obtained by centrifugation was collected and quantitatively analyzed using the HPLC method.
(§2) The results of measuring the plasma half-life of the compounds of the present invention using Methods 1 to 4 above are shown in Table 3.

[3] = Human plasma stability (Method 2); type: in vitro ADME; conditions: Method 2 (human plasma), 37° C.; read-out: Plasma stability t1/2
Protocol: Method 2: Human Plasma Stability
as §1, with “(A-19,” for “(A-16,”, “human” for “mouse”, “752PR-SC-PMG)” for “029-APSC-PMG)”, “ACN” for “acetonitrile (ACN, Sigma, SA-271004-1L)”, “centrifuged” for “centrifuged (Beckman, B30150)”
as §2

[4] = Rat plasma stability (Method 3); type: in vitro ADME; conditions: Method 3 (rat plasma), 37° C.; read-out: Plasma stability t1/2
Protocol: Method 3: Rat Plasma Stability
as §1, with “(A-22,” for “(A-16, A-22, A-25, A-36,”, “rat” for “mouse”, “031-APSC-PMG)” for “029-APSC-PMG)”, “ACN” for “acetonitrile (ACN, Sigma, SA-271004-1L)”, “centrifuged” for “centrifuged (Beckman, B30150)”
as §2

[5] = Beagle dog plasma stability (Method 4); type: in vitro ADME; conditions: Method 4 (beagle dog plasma), 37° C.; read-out: Plasma stability t1/2
Protocol: Method 4: Beagle Dog Plasma Stability
as §1, with “(A-22,” for “(A-16, A-22, A-25, A-36,”, “beagle dog” for “mouse”, “014-APSC-PMG)” for “029-APSC-PMG)”, “ACN” for “acetonitrile (ACN, Sigma, SA-271004-1L)”, “centrifuged” for “centrifuged (Beckman, B30150)”
as §2

Row | Structure (SMILES) | half-life at 100 µM [1] [h] | half-life at 300 µM [2] [h] | half-life at 300 µM [3] [h] | half-life at 300 µM [4] [h] | half-life at 300 µM [5] [h]
1 | CCC(C)[C@@H]([C@@H](CC(=O)N1CCC[C@H]1[C@H](OC)[C@@H](C)C(=O)NC(Cc1ccccc1)C(=O)O)OC)N(C)C(=O)[C@@H](NC(=O)[C@H](C(C)C)N(C)C(=O)OCc1ccc(O[C@@H]2O[C@H](CO)[C@H](O)[C@H](O)[C@H]2O)c2cc(CCCC(=O)NCCOCCOCCOCCN=[N+]=[N-])oc12)C(C)C (some centres unmarked) [Compound A-23] | > 168 |  |  |  | 
2 | CC[C@H](C)[C@@H]([C@@H](CC(=O)N1CCC[C@H]1[C@H](OC)[C@@H](C)C(=O)N[C@H](C)[C@@H](O)c1ccccc1)OC)N(C)C(=O)[C@@H](NC(=O)[C@H](C(C)C)N(C)C(=O)OCc1ccc(O[C@@H]2O[C@H](CO)[C@H](O)[C@H](O)[C@H]2O)c2cc(CCC(=O)NCCOCCOCCOCCN=[N+]=[N-])oc12)C(C)C [Compound A-25] | > 168 | > 168 | > 168 |  | 
3 | CCC(C)[C@@H]([C@@H](CC(=O)N1CCC[C@H]1[C@H](OC)[C@@H](C)C(=O)NC(Cc1ccccc1)C(=O)O)OC)N(C)C(=O)[C@@H](NC(=O)[C@H](C(C)C)N(C)C(=O)OCc1ccc(O[C@@H]2O[C@H](CO)[C@H](O)[C@H](O)[C@H]2O)c2cc(Cn3cc(COCCOCCOCCOC)nn3)sc12)C(C)C (some centres unmarked) [Compound A-19] | > 168 |  | > 168 |  | 
4 | CCC(C)[C@@H]([C@@H](CC(=O)N1CCC[C@H]1[C@H](OC)[C@@H](C)C(=O)NC(Cc1ccccc1)C(=O)O)OC)N(C)C(=O)[C@@H](NC(=O)[C@H](C(C)C)N(C)C(=O)OCc1ccc(O[C@@H]2O[C@H](CO)[C@H](O)[C@H](O)[C@H]2O)c2cc(CCCC(=O)O)oc12)C(C)C (some centres unmarked) [Compound A-22] (X1-[NMeV]V[Dil(5ξ)][Dolaproine][ξF]-OH) | > 168 | > 168 | > 168 | > 168 | > 168
5 | CC[C@H](C)[C@@H]([C@@H](CC(=O)N1CCC[C@H]1[C@H](OC)[C@@H](C)C(=O)N[C@H](C)[C@@H](O)c1ccccc1)OC)N(C)C(=O)[C@@H](NC(=O)[C@H](C(C)C)N(C)C(=O)OCc1ccc(O[C@@H]2O[C@H](C(=O)O)[C@@H](O)[C@H](O)[C@H]2O)c2cc(Cn3cc(COCCOCCOCCOC)nn3)[se]c12)C(C)C [Compound A-69] | > 168 | > 168 | > 168 | > 168 | > 168
6 | CCC(C)[C@@H]([C@@H](CC(=O)N1CCC[C@H]1[C@H](OC)[C@@H](C)C(=O)NC(Cc1ccccc1)C(=O)O)OC)N(C)C(=O)[C@@H](NC(=O)[C@H](C(C)C)N(C)C(=O)OCc1ccc(O[C@@H]2O[C@H](CO)[C@H](O)[C@H](O)[C@H]2O)c2cc(CCC(=O)O)sc12)C(C)C (some centres unmarked) [Compound A-16] (X2-[NMeV]V[Dil(5ξ)][Dolaproine][ξF]-OH) | > 168 | > 168 |  |  | 
7 | C#CCOCCOCCOCCOCC(=O)NCc1cc2c(O[C@@H]3O[C@H](CO)[C@H](O)[C@H](O)[C@H]3O)ccc(COC(=O)N(C)[C@H](C(=O)N[C@H](C(=O)N(C)[C@@H](C(C)CC)[C@@H](CC(=O)N3CCC[C@H]3[C@H](OC)[C@@H](C)C(=O)NC(Cc3ccccc3)C(=O)O)OC)C(C)C)C(C)C)c2s1 (some centres unmarked) [Compound A-21] | > 168 |  |  |  | 
8 | CCC(C)[C@@H]([C@@H](CC(=O)N1CCC[C@H]1[C@H](OC)[C@@H](C)C(=O)NC(Cc1ccccc1)C(=O)O)OC)N(C)C(=O)[C@@H](NC(=O)[C@H](C(C)C)N(C)C(=O)OCc1ccc(O[C@@H]2O[C@H](CO)[C@H](O)[C@H](O)[C@H]2O)c2cc(C(=O)O)[se]c12)C(C)C (some centres unmarked) [Compound A-29] (X3-[NMeV]V[Dil(5ξ)][Dolaproine][ξF]-OH) | > 168 |  |  |  | 
9 | CCC(C)[C@@H]([C@@H](CC(=O)N1CCC[C@H]1[C@H](OC)[C@@H](C)C(=O)NC(Cc1ccccc1)C(=O)O)OC)N(C)C(=O)[C@@H](NC(=O)[C@H](C(C)C)N(C)C(=O)OCc1ccc(O[C@@H]2O[C@H](CO)[C@H](O)[C@H](O)[C@H]2O)c2cc(C(=O)O)oc12)C(C)C (some centres unmarked) [Compound A-24] (X4-[NMeV]V[Dil(5ξ)][Dolaproine][ξF]-OH) | > 168 |  |  |  | 
10 | CCC(C)[C@@H]([C@@H](CC(=O)N1CCC[C@H]1[C@H](OC)[C@@H](C)C(=O)NC(Cc1ccccc1)C(=O)O)OC)N(C)C(=O)[C@@H](NC(=O)[C@H](C(C)C)N(C)C(=O)OCc1ccc(O[C@@H]2O[C@H](CO)[C@H](O)[C@H](O)[C@H]2O)c2cc(CCC(=O)NCCOCCOCCOCCN=[N+]=[N-])sc12)C(C)C (some centres unmarked) [Compound A-15] | > 168 |  |  |  | 
11 | C#CCOCCOCCOCCOCC(=O)NCc1cc2c(O[C@@H]3O[C@H](CO)[C@H](O)[C@H](O)[C@H]3O)ccc(COC(=O)N(C)[C@H](C(=O)N[C@H](C(=O)N(C)[C@@H](C(C)CC)[C@@H](CC(=O)N3CCC[C@H]3[C@H](OC)[C@@H](C)C(=O)NC(Cc3ccccc3)C(=O)O)OC)C(C)C)C(C)C)c2o1 (some centres unmarked) [Compound A-28] | > 168 |  |  |  | 
